Reference: patent US9352010B2, “Treatment of HIV-1 infection and AIDS” (The J. David Gladstone Institutes, priority 2011, dated 2016)
Read-outs that look alike come from different tables or passages of the source.

Assays:
HLAC CD4 T-cells = test: Spinoculation of HLAC with HIV-1, CD4 T-cell depletion; format: cell-based, human; conditions: ≧2 μg p24gag/200 μl, within 12 hours
Description: (A) The spinoculation procedure. (B) Flow cytometry of viable CD4 versus CD8-T-cells in HLAC three days after spinoculation in the presence of the indicated drugs. Data represent live-gated cells, based on the forward-scatter versus side-scatter profile of the complete culture. Of note, apoptotic cells were included in the analysis of caspases activity and cytokine expression (FIG. 10E, F). Drugs concentrations: AZT 5 μM; Efavirenz 100 nM; AMD3100 250 nM; T20 10 μg/ml. The data are representative results of six independent experiments with six different donors. […] (C) Highly permissive SupT1 CD4 T leukemic cells were infected with NL4-3 and cultivated for 3 days to allow substantial infection but not syncytia formation. […] After 2.5 days of additional culture, the extent of syncytia formation in each sample was evaluated by light microscopy. […] Results are representative of three independent experiments.
Fresh HLAC cells are cultured overnight in a V-bottom 96-well plate (1×10^6 cells/well) in the presence of drugs and then chilled on ice. […] The cold temperature allows virion attachment but prevents virion fusion. HIV-coated cells are then tightly packed into a pellet by high-speed centrifugation (1200 g) for 2 hours at 4° C. This step presses the virus between cell membranes, exerting a uniform and consistent attachment. […]

CFSE-labeled CD4 T-cells = format: cell-based, human; conditions: for indirect killing (loss) of resting CFSE-labeled CD4 T-cells: NL4-3-infected effector cells
ISRE-GFP H35 cells = test: ISRE-GFP H35 reporter cells; format: cell-based, rat; conditions: AZT 5 μM, efavirenz 100 nM, raltegravir 30 μM
Description: Hepatocyte-derived reporter ISRE-GFP H35 cells were maintained as previously described (King et al., 2007, Lab Chip 7:77-85; Patel et al., 2009, Proc Natl Acad Sci USA 106:12867-12872). For microscopic imaging, ISRE-GFP reporter H35 cells were cultured on 35 mm glass bottom culture dishes (MatTeck) and were treated with AZT (5 μM), Efavirenz (100 nM), or Raltegravir (30 μM) 12 hours before infection. Cells were then infected with 2 μg/ml of replication competent VSV-G pseudotyped NL4-3. After 48 hours incubation at 37° C., cells were fixed in 2% paraformaldehyde at 25° C. for 1 hour, washed with PBS and stained with 10 μg/ml Hoechst 33342 (Invitrogen) and 1 μg/ml 7-AAD (eBioscience) for 15 min at 25° C. Cells were washed 3 times with PBS and were analyzed with an Axio observer Z1 microscope (Zeiss) equipped with an EC Plan NEOFLUAR 10×/0.3 PHM27 objective, filter sets 38HE, 45, and 49, and an Axiocam MRM REV 3.

[1] = tested on: CD4 T cells in HIV-1 (NL4-3)-infected HLACs; test: CD4 T-cell death in HIV-1-infected HLACs, viable CD4 T cells by flow cytometry; format: cell-based, human; conditions: FIG. 15, 4 different donors

enfuvirtide
CD4 T-cell killing after spinoculation with high doses of HIV-1 (HLAC CD4 T-cells): prevented CD4 T-cell killing
indirect killing of CFSE-labeled CD4 T-cells (CFSE-labeled CD4 T-cells; GIA-SKY (T20-dependent)-infected effector cells, 1 μg/ml T20): Indirect killing was observed
indirect killing (loss) of resting CFSE-labeled CD4 T-cells (CFSE-labeled CD4 T-cells): greatly inhibited indirect killing
indirect killing of CFSE-labeled CD4 T-cells (CFSE-labeled CD4 T-cells; SIM (T20-resistant)-infected effector cells): did not inhibit indirect killing

Cc1cn([C@H]2C[C@H](N=[N+]=[N-])[C@@H](CO)O2)c(=O)[nH]c1=O [AZT]
GFP expression and cell death induced by VSV-G pseudotyped HIV-1 virions (ISRE-GFP H35 cells): induced GFP expression and cell death in the presence or absence of AZT
depletion of activated CFSE-labeled CD4 T-cells (CFSE-labeled CD4 T-cells; AZT-resistant HIV-1 clones, AZT 0.5 μM): did not deplete
indirect killing (loss) of resting CFSE-labeled CD4 T-cells (CFSE-labeled CD4 T-cells): robust
depletion of activated CFSE-labeled CD4 T-cells (CFSE-labeled CD4 T-cells; PHA and IL-2 activated target cells, NL4-3 effectors): extensively depleted in cultures containing AZT

c1cc(CN2CCCNCCNCCCNCC2)ccc1CN1CCCNCCNCCCNCC1 [AMD3100]
death of infected CD4 T-cells [1]: inhibit the death of infected CD4 T-cells
indirect killing of CFSE-labeled CD4 T-cells (CFSE-labeled CD4 T-cells; WEAU 16-8 (R5/X4)-infected effector cells): prevented indirect killing
AZT-induced killing of activated CFSE-labeled cells (CFSE-labeled CD4 T-cells; activated target cells in the presence of AZT): prevented the AZT-induced killing

O=C1Nc2ccc(Cl)cc2[C@@](C#CC2CC2)(C(F)(F)F)O1 [efavirenz]
death of infected CD4 T-cells [1]: inhibit the death of infected CD4 T-cells
GFP expression and cell death induced by VSV-G pseudotyped HIV-1 virions (ISRE-GFP H35 cells): blocked
CD4 T-cell killing after spinoculation with high doses of HIV-1 (HLAC CD4 T-cells): is not prevented
indirect killing (loss) of resting CFSE-labeled CD4 T-cells (CFSE-labeled CD4 T-cells): blocked indirect killing of resting CD4 T-cells as efficiently as AMD3100
